# Assay results taken from patent US20170129903A1, “COMPOUNDS COMPRISING 1,1a,2,5a-TETRAHYDROSPIRO[INDOLE-3,2a-PYRROLE]-2,5a-DIONE SYSTEM AS INHIBITORS P53-MDM2 PROTEIN-PROTEIN INTERACTION” (ADAMED SP. Z O.O., priority 2014, published 2017).
# Columns and labels:
# [1] = target: T1, p53-Mdm2 interaction (N-terminal domain of Mdm2 protein, amino acids 1-111) (Homo sapiens, UniProt Q00987); assay: Fluorescence polarization (FP) binding assay of p53-Mdm2 interaction; conditions: FP assay, 130 nM Mdm2, FAM-labelled p53 peptide; Ki transformed from IC50 using Kenakin equation
# T1 construct: N-terminal domain of Mdm2 protein (amino acids 1-111)
# T1 sequence (Q00987 1-111): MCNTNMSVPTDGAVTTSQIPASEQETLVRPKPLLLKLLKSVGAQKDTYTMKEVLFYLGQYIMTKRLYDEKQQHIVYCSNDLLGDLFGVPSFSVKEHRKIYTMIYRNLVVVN
# Method in brief: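 N-terminal Mdm2 (aa 1-111) at 130 nM preincubated 15 min with compound (5% DMSO) in PBS, 0.1% CHAPS, 5 mM DTT, then […] FAM-labelled p53 peptide added. Polarization read after 90 min at room temperature (ex 470/em 520 nm). IC50 converted to Ki by Kenakin equation.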
# [2] = system: SJSA-1 osteosarcoma cell line; assay: MTT cell viability assay; assay type: cell-based; conditions: Homo sapiens, SJSA-1, 72 h, 72 h incubation, average of 2-5 experiments
# Method in brief: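 Cells exposed to serial compound dilutions for 72 h, then MTT (0.5 mg/ml final) added for 4 h; formazan dissolved in DMSO. IC50 from dose-response curves, 2-5 independent repeats.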
# SJSA-1 xenograft = assay: In vivo efficacy in the SJSA-1 xenograft model in mice; conditions: compound 93 100 mg/kg p.o. q1dx14 vs control NaCl 0.9%, female Crl:SHO-Prkdc scid Hr hr mice, during and at the end of study
# Method: The experiment was conducted on female mice from the Crl:SHO-Prkdc^scidHr^hr strain. Mice were inoculated subcutaneously in the right flank with cancer cell line SJSA-1 in the amount of […] cells suspended in 100 μl HBSS: Matrigel matrix in a 3:1 ratio per mouse. On the 16th day after inoculation mice were divided into groups, so that in each group the mean tumor volume was similar and averaged around 160 mm^3. Two experiment groups were selected, each consisting of 5 mice: Control NaCl 0.9% and compound 93. The compound 93 was dissolved in 15% PEG400, 10% Cremophore EL, 75% H2O.
# Mice used in the experiment were administered per os (p.o.) with compounds or NaCl 0.9% in a q1dx14 schedule (14 doses, daily). During the course of experiment mice were weighed before each administration,—twice/thrice a week. Animal welfare was monitored daily.
# Change in tumor volume was monitored twice/thrice a week starting from the first day of administration. Tumor volume was calculated based on its length and width measured with an electronic calipers:
# V[mm^3]=d^2×D/2 • where d—width, D—length.
# The tumor volume in the compound 93 group was measured up to 68 days after inoculation (39 days after last administration). Results of the experiment were expressed as mean values of tumor volume ±SEM. All calculations and graphs were performed using GraphPad Prism 5 software. […]
Structure (SMILES),Ki [1] [nM],IC50 [2] [µM],difference in body weight or welfare between experiment groups (SJSA-1 xenograft)
"COc1ccc(-n2cc3c(c2C(C)C)C2(C(=O)Nc4cc(Cl)ccc42)N(c2cc(Cl)ccc2C)C3=O)c(OC)c1 (stereo not shown) [Compound 93, 6-chloro-2′-(5-chloro-2-methylphenyl)-5′-(2,4-dimethoxyphenyl)-6′-(propan-2-yl)-1,2,3′,5′-tetrahydro-2′H-spiro[indole-3,1′-pyrrolo[3,4-c]pyrrole]-2,3′-dione]",3.8,0.42,No significant difference
"COc1ccc(C(N)=O)cc1-n1cc2c(c1C(C)C)C1(C(=O)Nc3cc(Cl)ccc31)N(c1cc(Cl)ccc1C)C2=O (stereo not shown) [Compound 95, 3-[6-chloro-2′-(5-chloro-2-methylphenyl)-2,3′-dioxo-6′-(propan-2-yl)-1,2,3′,5′-tetrahydro-2′H-spiro[indole-3,1′-pyrrolo [3,4-c]pyrrole]-5′-yl]-4-methoxybenzamide]",1.8,0.3,–
"CCOC(=O)CNC1=C(c2ccccc2)C2(C(=O)Nc3cc(Cl)ccc32)N(c2cccc(Cl)c2)C1=O (stereo not shown) [Compound 48, ethyl 2-{[6-chloro-1′-(3-chlorophenyl)-2,5′-dioxo-3′-phenyl-1,1′,2,5′-tetrahydrospiro[indole-3,2′-pyrrole]-4′-yl]amino}acetate]",205,28,–
"COc1ccccc1-n1nc2c(c1C(C)C)C1(C(=O)Nc3cc(Cl)ccc31)N(c1cncc(Cl)c1)C2=O (stereo not shown) [Compound 72, 6-chloro-5′-(5-chloropyridin-3-yl)-2′-(2-methoxyphenyl)-3′-(propan-2-yl)-1,2,5′,6′-tetrahydro-2′H-spiro[indole-3,4′-pyrrolo [3,4-c]pyrazole]-2,6′-dione]",5.6,0.89,–
"COc1ccc(Cl)cc1N1C(=O)C(O)=C(c2ccccc2)C12C(=O)Nc1cc(Cl)ccc12 (stereo not shown) [Compound 46, 6-chloro-1′-(5-chloro-2-methoxyphenyl)-4′-hydroxy-3′-phenyl-1,1′,2,5′-tetrahydrospiro[indole-3,2′-pyrrole]-2,5′-dione]",96,32.3,–
"O=C1C(O)=C(c2ccccc2)C2(C(=O)Nc3cc(Cl)ccc32)N1c1cccc(Cl)c1 (stereo not shown) [Compound 41, 6-chloro-1′-(3-chlorophenyl)-4′-hydroxy-3′-phenyl-1,1′,2,5′-tetrahydrospiro[indole-3,2′-pyrrole]-2,5′-dione]",24,21.4,–

# Now from value to compound, other results behind:
Ki [1] [nM],IC50 [2] [µM],Structure (SMILES),difference in body weight or welfare between experiment groups (SJSA-1 xenograft)
3.1,0.16,"COc1ccc(-n2cc3c(c2C(C)C)C2(C(=O)Nc4cc(Cl)ccc42)N(c2cc(Cl)cnc2C)C3=O)c(OC)c1 (stereo not shown) [Compound 104, 6-chloro-2′-(5-chloro-2-methylpyridin-3-yl)-5′-(2,4-dimethoxyphenyl)-6′-(propan-2-yl)-1,2,3′,5′-tetrahydro-2′H-spiro[indole-3,1′-pyrrolo[3,4-c]pyrrole]-2,3′-dione]",–
3.4,0.69,"COc1sccc1-n1cc2c(c1C(C)C)C1(C(=O)Nc3cc(Cl)ccc31)N(c1cc(Cl)ccc1C)C2=O (stereo not shown) [Compound 113, 6-chloro-2′-(5-chloro-2-methylphenyl)-5′-(2-methoxythiophen-3-yl)-6′-(propan-2-yl)-1,2,3′,5′-tetrahydro-2′H-spiro[indole-3,1′-pyrrolo[3,4-c]pyrrole]-2,3′-dione]",–
4.7,1.77,"COc1cc2[nH]c(=O)[nH]c2cc1-n1cc2c(c1C(C)C)C1(C(=O)Nc3cc(Cl)ccc31)N(c1cc(Cl)ccc1C)C2=O (stereo not shown) [Compound 101, 6-chloro-2′-(5-chloro-2-methylphenyl)-5′-(6-methoxy-2-oxo-2,3-dihydro-1H-1,3-benzodiazol-5-yl)-6′-(propan-2-yl)-1,2,3′,5′-tetrahydro-2′H-spiro[indole-3,1′-pyrrolo[3,4-c]pyrrole]-2,3′-dione]",–
